Measurements: US20220054494A1, “METHODS FOR TREATING BLADDER AND URETHRA DYSFUNCTION AND DISEASE” (University of Pittsburgh - Of the Commonwealth System of …, priority 2019, published 2022)
“Also recorded” adds a separate entry of the source.

How the values were obtained:
Type in all cases: in vivo, rat
bladder vasculature = assay: Ribbon-scanning confocal microscopy of bladder vasculature perfused with fluorescent beads; conditions: aged rats
Source text: Bladders that had been perfused transcardially with PBS and containing 20 nm yellow-green fluorescent beads (THERMO FISHER™, F8787) to highlight the vasculature were fixed then cleared rapidly by removing lipids and dissolving light-absorbing chromophores within the tissue. Clearing the tissue increased the maximum depth of confocal imaging to many millimeters. At this stage, tissue was directly imaged for the presence of genetically expressed reporter proteins or underwent staining using immunohistochemistry (IHC) or molecular dyes. Using this method, images were acquired through bladders (and other tissues) that are 5000 micrometers thick. Volumetric data are acquired using the Caliber ID RS-G4 ribbon scanning confocal microscope, which acquired large-area images 20-40 times faster than other commercially available systems with a high nA (1.0) long working distance (8 mm) low magnification (20×) by NIKON™ Inc (Tokyo, Japan). Quantitative changes in vascular structures were compared with the volume and surface area of each bladder and of the various tissue subtypes using these methods (UT; suburothelium; mesenchyme). These methods afforded the advantage of interrogating whole tissues in a three-dimensional environment and in combination with IHC without the need to section.
Vascular Changes: Bladders that had been perfused transcardially with PBS buffer containing 20 nm yellow-green fluorescent beads (THERMO FISHER®, F8787) to highlight the vasculature were fixed then cleared by removing lipids and dissolving light-absorbing chromophores within the tissue. Volumetric data were acquired using a Caliber ID RS-G4 ribbon scanning confocal microscope (NIKON® Inc, Tokyo, Japan), which can acquire large-area images (uses a high nA (1.0) long working distance (8 mm) with low magnification (20×)). This affords the advantage of interrogating whole tissues in a three-dimensional environment without the need to section. Real-time blood perfusion (1 mm3 tissue) was accomplished using a BLF22D laser Doppler flowmeter (Transonic Systems, Inc) with a surface probe (TypeS-APLPHS) applied to the serosal surface of the bladder (apex and neck) wall using Doppler light shift from moving RBCs to analyze flow by the Bonner algorithm. This method gives robust, non-invasive microvascular flow signals in the bladder wall of anesthetized rats.

AVP receptor V1a = assay: Western immunoblotting, kidney V1a vasopressin receptor; conditions: aged Fisher 344 rats; 8-AG 5 mg kg/day via drinking water, 1 month
Procedure: Western immunoblotting and transmission electron microscopy: Following these testing paradigms, rats were deeply anesthetized, bladders were removed, and one half of each bladder (using the smooth muscle layer) was homogenized using Lysing Matrix D in a FASTPREP-24™ instrument (MP BIOMEDICALS™, Solon, Ohio) in HBSS (5 mM KCl, 0.3 mM KH2PO4, 138 mM NaCl, 4 mM NaHO3, 0.3 mM Na2HCO3, 0.3 mM Na2HPO4, 5.6 mM glucose and 10 mM Hepes, pH 7.4) containing complete protease inhibitor cocktail (1 tablet/10 ml, ROCHE™, Indianapolis, Ind.) and phosphatase inhibitor cocktail (SIGMA®, 1:100). Whole rat kidney was also homogenized using the same procedure. After centrifugation (13000 rpm; 15 min at 4° C.), the membrane protein fraction was prepared by suspending the membrane pellets in lysis buffer containing 0.3 M NaCl, 50 mM Tris-HCl (pH 7.6), 0.5% Triton X-100, and the same concentration of protease inhibitors as above. […] The protein concentrations of the combined supernatants were determined using the PIERCE™ BCA protein assay (THERMO SCIENTIFIC™, Rockford, Ill.). […] As a loading control, total protein per sample was determined using BIO-RAD™ Stain Free SDS-PAGE gel technology. UV-activated protein fluorescence was imaged on a CHEMIDOC™ MP (BIO-RAD™). […] The volume (intensity) of each protein species was determined and normalized to total protein using Image Lab software (BIO-RAD™).

[1] = system: urethral smooth muscle and external urethral sphincter (striated muscle); assay: Transmission electron microscopy of urethral smooth muscle and external urethral sphincter; conditions: aged rats; oral 8-AG 5 mg/kg/day, 6 weeks
Source text: Damage to the muscles or lack of hormonal stimulation are major contributing factors to urinary incontinence, which can lead to impaired bladder, emptying, urgency, and incontinence. The methods and materials used (such as for western immunoblotting and transmission electron microscopy) are the same as Example 1 with the tissues utilized for examination of muscle and mitochondrial morphology being the proximal urethral sphincter muscle and striated muscle of the external sphincter.
Transmission electron microscopy (TEM): The other half of each urinary bladder, proximal urethra, or external urethral sphincter from each group (young, aged, aged+8-AG treatment) was fixed in cold 2.5% glutaraldehyde in 0.01 M PBS. The specimens were rinsed in PBS, post-fixed in 1% osmium tetroxide with 1% potassium ferricyanide, rinsed in PBS, dehydrated through a graded series of ethanol and propylene oxide solutions, and embedded in POLY/BED® 812 (Luft formulations). Semi-thin (300 nm) sections were cut on a LEICA® Reichart Ultracut, stained with 0.5% Toluidine Blue in 1% sodium borate and examined under the light microscope. Ultrathin sections (65 nm) were stained with uranyl acetate as well as Reynold's lead citrate and examined on a JEOL 1400 transmission electron microscope with a side mount AMT 2k digital camera (Advanced Microscopy Techniques, Danvers, Mass.).

[2] = chronic 8-AG treatment (Examples 1-2)

For Nc1nc2[nH]c(N)nc2c(=O)[nH]1 [8-AG, 8-Aminoguanine], the “ischemic appearance of bladder tissue” value (bladder vasculature; [2]) was “no longer appeared ischemic”, the “tortuosity of bladder vessels” value (bladder vasculature; [2]) was “restored to a younger state; also recorded: reduced the number of tortuous vessels” and the “ischemic appearance of bladder tissue” value (bladder vasculature; oral 8-AG 5 mg/kg/day, 6 weeks) was “no longer appeared ischemic”. The “vascular tortuosity / tortuous vessels in bladder” value (bladder vasculature; oral 8-AG 5 mg/kg/day, 6 weeks) was “reduced the number of tortuous vessels; also recorded: restored to a younger state”, the “V1a vasopressin receptor in kidney” value (AVP receptor V1a) was “restored to a younger state; also recorded: restored to levels similar to the younger state” and the “external urethral sphincter (striated muscle) and mitochondrial morphology” value [1] was “restored to a younger state; also recorded: reversed to a younger state”. For the same compound, the “urethral smooth muscle and mitochondrial morphology” value [1] was “restored to a younger state; also recorded: reversed to a younger state”.
